Consider 43 molecules from patent US20250313535A1, “ALPHA 4 BETA 7 INTEGRIN MODULATORS AND USES THEREOF” (DICE MOLECULES SV, INC., priority 2022, published 2025).

In test [1] the target is α4β1 integrin (Homo sapiens (Human), UniProt P05556+P13612). The experiment in a line: Integrin Adhesion Assay: Protocol 2 (VCAM-coated plate, Jurkat cells, CellTiter GLO readout). The format is cell-based. The following applies: determined by at least one of the assays described (protocol not specified). Summed up: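 Jurkat cells (2×10^6 per mL) adhered to VCAM-coated (0.1 ug/well), BSA-blocked wells with compound (1% DMSO) for 1 h at 37° C in 10 mM HEPES, 150 mM NaCl, 1 mM MnCl2, 0.1 mM CaCl2. After four washes, bound cells were quantified by CellTiter-Glo luminescence. Percent inhibition versus DMSO and control-compound wells was fitted to a 4-parameter curve.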
Sequence of α4β1 integrin (P13612 34-1032): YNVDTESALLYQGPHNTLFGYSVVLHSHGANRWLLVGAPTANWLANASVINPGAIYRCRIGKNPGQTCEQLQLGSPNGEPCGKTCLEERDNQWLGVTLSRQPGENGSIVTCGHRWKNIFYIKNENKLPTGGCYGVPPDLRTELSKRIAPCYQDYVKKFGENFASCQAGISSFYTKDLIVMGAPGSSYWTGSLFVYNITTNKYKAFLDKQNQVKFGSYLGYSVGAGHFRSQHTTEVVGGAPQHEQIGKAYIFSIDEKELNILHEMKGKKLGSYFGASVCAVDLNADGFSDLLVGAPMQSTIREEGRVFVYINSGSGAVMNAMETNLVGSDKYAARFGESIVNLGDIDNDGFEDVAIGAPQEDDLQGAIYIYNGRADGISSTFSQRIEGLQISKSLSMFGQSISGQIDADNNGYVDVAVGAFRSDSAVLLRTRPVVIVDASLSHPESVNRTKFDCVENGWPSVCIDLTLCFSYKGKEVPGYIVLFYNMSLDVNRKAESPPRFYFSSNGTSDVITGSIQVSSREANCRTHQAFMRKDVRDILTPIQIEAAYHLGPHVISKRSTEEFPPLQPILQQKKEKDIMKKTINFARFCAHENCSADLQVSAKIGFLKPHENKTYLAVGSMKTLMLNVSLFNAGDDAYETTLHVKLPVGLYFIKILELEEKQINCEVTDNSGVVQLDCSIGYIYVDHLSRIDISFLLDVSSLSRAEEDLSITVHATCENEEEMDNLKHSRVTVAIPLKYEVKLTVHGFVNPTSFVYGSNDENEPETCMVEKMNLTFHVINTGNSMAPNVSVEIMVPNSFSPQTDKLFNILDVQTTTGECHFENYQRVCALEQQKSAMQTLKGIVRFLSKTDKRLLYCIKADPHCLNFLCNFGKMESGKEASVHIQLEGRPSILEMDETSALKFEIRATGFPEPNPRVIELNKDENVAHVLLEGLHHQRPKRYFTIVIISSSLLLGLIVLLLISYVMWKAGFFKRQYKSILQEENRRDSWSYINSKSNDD
Sequence of α4β1 integrin (P05556 21-798): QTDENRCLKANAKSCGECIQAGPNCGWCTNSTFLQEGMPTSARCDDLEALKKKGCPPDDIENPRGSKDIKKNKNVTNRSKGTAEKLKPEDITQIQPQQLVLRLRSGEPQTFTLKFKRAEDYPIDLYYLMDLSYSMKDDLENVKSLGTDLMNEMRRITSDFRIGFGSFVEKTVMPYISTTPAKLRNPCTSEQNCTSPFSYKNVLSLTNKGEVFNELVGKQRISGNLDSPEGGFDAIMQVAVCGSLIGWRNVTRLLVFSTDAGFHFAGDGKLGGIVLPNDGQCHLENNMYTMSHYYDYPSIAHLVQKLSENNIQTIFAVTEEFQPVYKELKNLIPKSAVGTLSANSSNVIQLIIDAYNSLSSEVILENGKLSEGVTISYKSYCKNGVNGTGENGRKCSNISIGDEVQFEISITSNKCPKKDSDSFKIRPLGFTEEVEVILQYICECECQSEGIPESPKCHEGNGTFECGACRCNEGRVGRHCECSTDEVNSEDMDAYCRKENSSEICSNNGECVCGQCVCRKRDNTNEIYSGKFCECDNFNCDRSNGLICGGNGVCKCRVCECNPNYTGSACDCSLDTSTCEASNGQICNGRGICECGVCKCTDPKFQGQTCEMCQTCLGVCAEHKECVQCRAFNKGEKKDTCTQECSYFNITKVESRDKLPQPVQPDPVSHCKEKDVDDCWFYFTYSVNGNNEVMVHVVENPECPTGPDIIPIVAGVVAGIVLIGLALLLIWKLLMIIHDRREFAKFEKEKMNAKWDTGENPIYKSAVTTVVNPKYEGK

Test [2] concerns the target α4β7 integrin (Homo sapiens (Human), UniProt P13612+P26010). The experiment in a line: Integrin Adhesion Assay: Protocol 1 (MAdCAM-coated plate, RPMI-8866 cells, CellTiter GLO readout). Format: cell-based. The conditions noted are these: integrin adhesion assay; determined by at least one of the assays described (protocol not specified). Summed up: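 RPMI-8866 cells (2×10^6 per mL) added with compounds (1% DMSO) to MAdCAM-coated wells blocked in HEPES/NaCl buffer with 1 mM MnCl2, 0.1 mM CaCl2, 1% BSA; 1 h at 37° C, 5% CO2. After four washes, bound cells read by CellTiter GLO luminescence; % inhibition vs DMSO and control wells, 4-parameter fit.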

Sequence of α4β7 integrin (P13612 34-1032): as the sequence (P13612 34-1032) above
Sequence of α4β7 integrin (P26010 20-798): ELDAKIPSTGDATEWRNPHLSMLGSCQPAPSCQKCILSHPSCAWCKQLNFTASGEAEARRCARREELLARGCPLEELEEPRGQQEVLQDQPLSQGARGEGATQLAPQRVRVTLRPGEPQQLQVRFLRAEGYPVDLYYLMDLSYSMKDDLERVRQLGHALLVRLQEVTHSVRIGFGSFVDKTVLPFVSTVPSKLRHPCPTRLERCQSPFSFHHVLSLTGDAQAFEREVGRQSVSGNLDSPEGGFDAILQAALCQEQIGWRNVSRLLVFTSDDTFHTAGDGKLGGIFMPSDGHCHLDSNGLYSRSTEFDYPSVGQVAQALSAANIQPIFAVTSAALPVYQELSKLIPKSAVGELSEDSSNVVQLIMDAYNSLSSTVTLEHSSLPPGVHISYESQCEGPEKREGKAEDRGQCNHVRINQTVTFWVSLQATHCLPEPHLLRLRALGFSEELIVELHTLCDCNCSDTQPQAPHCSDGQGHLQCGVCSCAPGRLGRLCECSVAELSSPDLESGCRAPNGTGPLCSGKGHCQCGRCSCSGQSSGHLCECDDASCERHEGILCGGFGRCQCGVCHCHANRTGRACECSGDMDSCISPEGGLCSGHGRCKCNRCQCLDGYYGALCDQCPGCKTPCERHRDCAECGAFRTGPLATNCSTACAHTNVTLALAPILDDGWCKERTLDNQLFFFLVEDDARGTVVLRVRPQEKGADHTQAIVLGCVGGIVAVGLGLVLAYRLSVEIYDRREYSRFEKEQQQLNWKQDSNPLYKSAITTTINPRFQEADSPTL

With `CCc1ccc(F)c(C(=O)N[C@@H](Cc2cccc3c(-n4c(=O)ccn(C)c4=O)cccc23)C(=O)O)c1F` [Compound 139], the IC50 (as a rule, the point on the concentration scale where inhibition reaches its midpoint) in test [1] is 100 to 1000 nM; in test [2] it was 10 to 100 nM.
For `Cn1ccc(=O)n(-c2cccc3c(C[C@H](NC(=O)c4c(F)cc5cnn(CC(F)(F)F)c5c4F)C(=O)O)cccc23)c1=O` [Compound 16], the IC50 in test [1] was 100 to 1000 nM; in test [2], less than 10 nM.
The matching figures for `Cn1ccc(=O)n(-c2cccc3c(C[C@H](NC(=O)c4c(F)ccc(NS(=O)(=O)C(F)(F)F)c4F)C(=O)O)cccc23)c1=O` [Compound 12]: 100 to 1000 nM and less than 10 nM.
The matching figures for `Cn1ccc(C(F)(F)F)c(-c2nccc3c(C[C@H](NC(=O)c4c(F)cc(N(CC(F)(F)F)CC(F)(F)F)cc4CN4CCCC4)C(=O)O)cccc23)c1=O` [Compound 252]: greater than 1000 nM and less than 10 nM.
In the case of `Cn1ccc(=O)n(-c2cccc3c(C[C@H](NC(=O)c4cc(C(=O)N5CCc6ccccc6C5)n(-c5ccccc5)n4)C(=O)O)cccc23)c1=O` [Compound 44], the IC50 in test [1] and in test [2] was greater than 1000 nM throughout.
In the case of `Cn1ccc(=O)n(-c2cccc3c(C[C@H](NC(=O)c4ccc(C(=O)NCCCCN)nc4)C(=O)O)cccc23)c1=O` [Compound 24], the IC50 in test [1] and in test [2] was greater than 1000 nM each time.
As to `COc1cc(F)c(C(=O)N[C@@H](Cc2cccc3c(-n4c(=O)ccn(C)c4=O)cccc23)C(=O)O)c(F)c1` [Compound 28], the results for the IC50 in test [1] and in test [2] were greater than 1000 nM and 10 to 100 nM, respectively.
In the case of `Cn1ccc(=O)n(-c2cccc3c(C[C@H](NC(=O)c4c(F)cc(N5CCOC[C@@H]5C(F)(F)F)cc4F)C(=O)O)cccc23)c1=O` [Compound 108], the IC50 is 100 to 1000 nM in test [1] and less than 10 nM in test [2].
The like results for `Cn1ccc(C(F)(F)F)c(-c2nccc3c(C[C@H](NC(=O)c4c(F)cc(N5CCOC[C@@H]5C(F)(F)F)cc4F)C(=O)O)cccc23)c1=O` [Compound 214] were, in that order, greater than 1000 nM and less than 10 nM.
For `Cn1ccc(=O)n(-c2cccc3c(C[C@H](NC(=O)c4c(F)cc5nn(CC(F)(F)F)cc5c4F)C(=O)O)cccc23)c1=O` [Compound 15], the IC50 in test [1] was 100 to 1000 nM; in test [2], less than 10 nM.
The like results for `Cn1ccc(=O)n(-c2cccc3c(C[C@H](NCc4ccc(N5CCOCC5)cc4)C(=O)O)cccc23)c1=O` [Compound 70] were, in that order, greater than 1000 nM and greater than 1000 nM.
The matching figures for `Cn1ccc(C(F)(F)F)c(-c2nccc3c(C[C@H](NC(=O)c4c(F)cc(CN5CCOCC5)cc4F)C(=O)O)cccc23)c1=O` [Compound 246]: greater than 1000 nM and 100 to 1000 nM.
The like results for `Cn1ccc(=O)n(-c2cccc3c(C[C@H](NC(=O)c4c(Cl)cccc4Cl)C(=O)O)cccc23)c1=O` [Compound 14] were, in that order, greater than 1000 nM and less than 10 nM.
Regarding `Cn1ccc(=O)n(-c2cccc3c(C[C@H](NC(=O)c4c(F)cc(NS(=O)(=O)C(F)(F)F)cc4F)C(=O)O)cccc23)c1=O` [Compound 8], the IC50 in test [1] is 100 to 1000 nM; in test [2], less than 10 nM.
The matching figures for `Cn1ccc(C(F)(F)F)c(-c2cccc3c(C[C@H](NC(=O)c4c(F)cc(N5CCOC[C@@H]5C(F)(F)F)cc4CN4CCOCC4)C(=O)O)cccc23)c1=O` [Compound 143]: 100 to 1000 nM and less than 10 nM.
For `CNC(=O)[C@@H]1CC[C@H](c2ccccc2)N1C(=O)c1ccc2cc(C(=O)N[C@@H](Cc3cccc4c(-n5c(=O)ccn(C)c5=O)cccc34)C(=O)O)ccc2c1` [Compound 128], the IC50 is greater than 1000 nM in test [1] and 100 to 1000 nM in test [2].
The matching figures for `Cn1cc(CCO)c(=O)n(-c2cccc3c(C[C@H](NC(=O)c4c(F)cccc4F)C(=O)O)cccc23)c1=O` [Compound 137]: greater than 1000 nM and 10 to 100 nM.
The like results for `CCOCc1cc(OC)c(-c2cccc3c(C[C@H](NC(=O)c4c(F)cccc4F)C(=O)O)cccc23)c(OC)c1` [Compound 172] were, in that order, 100 to 1000 nM and 10 to 100 nM.
The matching figures for `Cn1ccc(C(F)(F)F)c(-c2cccc3c(C[C@H](NC(=O)c4c(F)cccc4F)C(=O)O)cccc23)c1=O` [Compound 115]: 100 to 1000 nM and 10 to 100 nM.
On to `CCC1(C(=O)N[C@@H](Cc2cccc3c(-n4c(=O)ccn(C)c4=O)cccc23)C(=O)O)CCN(CC(F)(F)F)CC1` [Compound 152], for which the values for the IC50 in test [1] and in test [2] were 100 to 1000 nM and 10 to 100 nM, respectively.
The like results for `CNC(=O)[C@@H]1CCN1C(=O)c1ccc2cc(C(=O)N[C@@H](Cc3cccc4c(-n5c(=O)ccn(C)c5=O)cccc34)C(=O)O)ccc2c1` [Compound 127] were, in that order, greater than 1000 nM and greater than 1000 nM.
The like results for `Cn1ccc(C(F)(F)F)c(-c2nccc3c(C[C@H](NC(=O)c4c(F)cccc4C(F)(F)F)C(=O)O)cccc23)c1=O` [Compound 258] were, in that order, greater than 1000 nM and 100 to 1000 nM.
The matching figures for `Cn1ccc(=O)n(-c2cccc3c(C[C@H](NC(=O)C45C[C@H]6C[C@@H](C4)C[C@@H](C5)C6)C(=O)O)cccc23)c1=O` [Compound 53]: greater than 1000 nM and 100 to 1000 nM.
On to `Cn1ccc(=O)n(-c2cccc3c(C[C@H](NC(=O)c4c(F)cc5c(cnn5CC(F)(F)F)c4F)C(=O)O)cccc23)c1=O` [Compound 126], for which the IC50 in test [1] is 100 to 1000 nM; in test [2], less than 10 nM.
The like results for `O=C(N[C@@H](Cc1cccc2c(-c3nccc4ccncc34)cccc12)C(=O)O)c1c(F)cc(N2CCOC[C@H]2CC(F)F)cc1CN1CCOCC1` [Compound 146] were, in that order, greater than 1000 nM and less than 10 nM.
The matching figures for `Cn1ccc(=O)n(-c2cccc3c(C[C@H](NC(=O)[C@H]4C[C@H]5CC[C@@H](C4)N5CC(F)(F)F)C(=O)O)cccc23)c1=O` [Compound 154]: greater than 1000 nM and greater than 1000 nM.
The matching figures for `Cn1c(=O)c2ccccc2n(-c2cccc3c(C[C@H](NC(=O)c4c(F)cccc4F)C(=O)O)cccc23)c1=O` [Compound 3]: greater than 1000 nM and 10 to 100 nM.
As to `CN(C)CCc1cn(C)c(=O)n(-c2cccc3c(C[C@H](NC(=O)c4c(F)cccc4F)C(=O)O)cccc23)c1=O` [Compound 117], the IC50 in test [1] was greater than 1000 nM; in test [2], 10 to 100 nM.
The like results for `Cn1ccc(=O)n(-c2cccc3c(C[C@H](NC(=O)c4c(F)ccc(OC(F)F)c4F)C(=O)O)cccc23)c1=O` [Compound 31] were, in that order, 100 to 1000 nM and 10 to 100 nM.
On to `Cn1ccc(=O)n(-c2cccc3c(C[C@H](NC(=O)C(C)(C)CSc4cccc(C(F)(F)F)c4)C(=O)O)cccc23)c1=O` [Compound 177], for which the IC50 in test [1] and in test [2] was greater than 1000 nM throughout.
Regarding `Cn1ccc(=O)n(-c2cccc3c(C[C@H](NC(=O)C4(C)CCN(C(=O)C(F)F)CC4)C(=O)O)cccc23)c1=O` [Compound 55], the IC50 in test [1] is greater than 1000 nM; in test [2], 100 to 1000 nM.
The matching figures for `Cn1ccc(=O)n(-c2cccc3c(C[C@H](NC(=O)c4c(F)cncc4Cl)C(=O)O)cccc23)c1=O` [Compound 110]: 100 to 1000 nM and 10 to 100 nM.
The like results for `Cn1ccc(=O)n(-c2cccc3c(C[C@H](NC(=O)C45CCN(CC4)CC5)C(=O)O)cccc23)c1=O` [Compound 62] were, in that order, greater than 1000 nM and greater than 1000 nM.
The matching figures for `CC(C)N1CCC(C)(C(=O)N[C@@H](Cc2cccc3c(-n4c(=O)ccn(C)c4=O)cccc23)C(=O)O)CC1` [Compound 57]: greater than 1000 nM and 10 to 100 nM.
As for `Cn1ccc(=O)n(-c2cccc3c(C[C@H](NC(=O)C45CCC(C(F)(F)F)(CC4)CC5)C(=O)O)cccc23)c1=O` [Compound 165], the IC50 was greater than 1000 nM in test [1] and 100 to 1000 nM in test [2].
For the molecule `O=C(N[C@@H](Cc1cccc2c(-c3cccc4ccncc34)nccc12)C(=O)O)c1c(F)cc(N2CCOC[C@@H]2C(F)(F)F)cc1F` [Compound 220], the values for the IC50 in test [1] and in test [2] were greater than 1000 nM and 10 to 100 nM, respectively.
The like results for `CC(C)C1(C(=O)N[C@@H](Cc2cccc3c(-n4c(=O)ccn(C)c4=O)cccc23)C(=O)O)CCN(CC(F)(F)F)CC1` [Compound 153] were, in that order, 100 to 1000 nM and 10 to 100 nM.
The like results for `CCC1(C(=O)N[C@@H](Cc2cccc3c(-n4c(=O)ccn(C)c4=O)cccc23)C(=O)O)CCC(F)(F)CC1` [Compound 66] were, in that order, greater than 1000 nM and 100 to 1000 nM.
The matching figures for `Cn1ccc(=O)n(-c2cccc3c(C[C@H](NC(=O)[C@@]4(C)CCCN(CC(F)(F)F)CC4)C(=O)O)cccc23)c1=O` [Compound 158]: greater than 1000 nM and 100 to 1000 nM.
For the molecule `Cn1ccc(=O)n(-c2cccc3c(C[C@H](NC(=O)c4c(F)cc(NS(C)(=O)=O)cc4F)C(=O)O)cccc23)c1=O` [Compound 111], the IC50 in test [1] was 100 to 1000 nM; in test [2], less than 10 nM.
As to `Cn1ccc(C(F)(F)F)c(-c2cccc3c(C[C@H](NC(=O)c4c(F)cc(N5CCOC[C@@H]5C(F)(F)F)cc4F)C(=O)O)cccc23)c1=O` [Compound 142], the IC50 in test [1] is greater than 1000 nM; in test [2] it was 10 to 100 nM.
The like results for `O=C(N[C@@H](Cc1cccc2c(-c3nccc4ccncc34)cccc12)C(=O)O)c1c(F)cc(CN2CCOCC2)cc1F` [Compound 38] were, in that order, greater than 1000 nM and 100 to 1000 nM.
The matching figures for `Cn1ccc(=O)n(-c2cccc3c(C[C@H](NC(=O)c4c(F)cc(N5CCOC[C@@H]5C(F)(F)F)cc4CN4CCOCC4)C(=O)O)cccc23)c1=O` [Compound 20]: 100 to 1000 nM and less than 10 nM.
